# Data reported in patent US20100298141A1, “SUBSTITUTED PYRIDINE N-OXIDE HERBICIDES” (E. I. DU PONT DE NEMOURS AND COMPANY, priority 2007, published 2010).
# What was measured:
# [1] = system: barnyardgrass; assay: Test A pre-/postemergence greenhouse test; type: in vivo, Echinochloa crus-galli; details: for Barnyardgrass plant response rating: 0 to 100 scale
# How it was run: (§1)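 Herbicidal effect is a visual injury score given about ten days post-treatment by comparison with untreated controls. Preemergence plots received a directed spray onto sown loam–sand soil; postemergence plants, at the one- to two-leaf stage and 2–10 cm tall, were sprayed at the same time.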
# [2] = system: redroot pigweed; assay: Test A pre-/postemergence greenhouse test; type: in vivo, Amaranthus retroflexus; details: for Pigweed plant response rating: 0 to 100 scale
# How it was run: as §1
# [3] = system: velvetleaf; assay: Test A pre-/postemergence greenhouse test; type: in vivo, Abutilon theophrasti; details: for Velvetleaf plant response rating: 0 to 100 scale
# How it was run: as §1
# [4] = system: downy brome; assay: Test C pre-/postemergence test; type: in vivo, Bromus tectorum; details: for Plant response rating, Bromegrass, Downy: scale 0 to 100, 0 no effect, 100 complete control
# How it was run: (§2)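 Test chemicals were formulated with surfactant in a non-phytotoxic solvent and sprayed both on freshly planted seeds (preemergence) and on 1- to 4-leaf plants of 2–18 cm (postemergence). Flooded-paddy pots received compound directly into 3 cm of standing water, maintained for the test.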
# [5] = system: green foxtail; assay: Test C pre-/postemergence test; type: in vivo, Setaria viridis; details: for Plant response rating, Foxtail, Green: scale 0 to 100, 0 no effect, 100 complete control
# How it was run: as §2
# [6] = system: wild oat; assay: Test C pre-/postemergence test; type: in vivo, Avena fatua; details: for Plant response rating, Oat, Wild: scale 0 to 100, 0 no effect, 100 complete control
# How it was run: as §2
# [7] = system: Surinam grass; assay: Test C pre-/postemergence test; type: in vivo, Brachiaria decumbens; details: for Surinam Grass plant response rating: preemergence, scale 0 (no effect) to 100 (complete control); for Plant response rating, Surinam Grass: scale 0 to 100, 0 no effect, 100 complete control
# How it was run: as §2
# [8] = system: cocklebur; assay: Test C pre-/postemergence test; type: in vivo, Xanthium strumarium; details: for Plant response rating, Cocklebur: scale 0 to 100, 0 no effect, 100 complete control
# How it was run: as §2
# [9] = system: crabgrass; assay: Test C pre-/postemergence test; type: in vivo, Digitaria sanguinalis; details: for Plant response rating, Crabgrass, Large: scale 0 to 100, 0 no effect, 100 complete control
# How it was run: as §2
# [10] = system: giant foxtail; assay: Test C pre-/postemergence test; type: in vivo, Setaria faberii; details: for Plant response rating, Foxtail, Giant: scale 0 to 100, 0 no effect, 100 complete control
# How it was run: as §2
# [11] = system: johnsongrass; assay: Test C pre-/postemergence test; type: in vivo, Sorghum halepense; details: for Johnsongrass plant response rating: preemergence, scale 0 (no effect) to 100 (complete control); for Plant response rating, Johnsongrass: scale 0 to 100, 0 no effect, 100 complete control
# How it was run: as §2
# [12] = system: kochia; assay: Test C pre-/postemergence test; type: in vivo, Kochia scoparia; details: for Plant response rating, Kochia: scale 0 to 100, 0 no effect, 100 complete control
# How it was run: as §2
# [13] = system: lambsquarters; assay: Test C pre-/postemergence test; type: in vivo, Chenopodium album; details: for Plant response rating, Lambsquarters: scale 0 to 100, 0 no effect, 100 complete control
# How it was run: as §2
# [14] = system: eastern black nightshade; assay: Test C pre-/postemergence test; type: in vivo, Solanum ptycanthum
# How it was run: as §2
# [15] = system: common ragweed; assay: Test C pre-/postemergence test; type: in vivo, Ambrosia elation; details: for Plant response rating, Ragweed: scale 0 to 100, 0 no effect, 100 complete control
# How it was run: as §2
# [16] = system: velvetleaf; assay: Test C pre-/postemergence test; type: in vivo, Abutilon theophrasti; details: Postemergence; for Plant response rating, Velvetleaf: scale 0 to 100, 0 no effect, 100 complete control
# How it was run: as §2
# [17] = system: rice; assay: Test C flooded paddy test; type: in vivo, Oryza sativa; details: Flood
# How it was run: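 Compound was added to standing water 3 cm above soil, flood maintained, and plants held in a greenhouse before visual scoring against controls at 13 to 15 days.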
# [18] = Postemergence, 125 g ai/ha, 0 is no effect, 100 is complete control
# [19] = Postemergence, 500 g ai/ha, 0 is no effect, 100 is complete control
# [20] = Preemergence, 125 g ai/ha, 0 no effect, 100 complete control
# [21] = Preemergence, 500 g ai/ha, 0 to 100 scale where 0 is no effect and 100 is complete control
# [22] = 31 g ai/ha, Preemergence, scale 0 to 100
# [23] = 62 g ai/ha, preemergence, scale 0 (no effect) to 100 (complete control)
# [24] = preemergence, 125 g ai/ha, scale 0 (no effect) to 100 (complete control)
compound,measurement,setting,value
Cn1nc(C(F)(F)F)c(C[S+]([O-])c2cccc[n+]2[O-])c1OC(F)F (centres unmarked) [Compound 3],Barnyardgrass plant response rating,[1]; [18],80
same,Barnyardgrass plant response rating,[1]; [19],90
same,Barnyardgrass plant response rating,[1]; [20],80
same,"Plant response rating, Barnyardgrass",[1]; [21],100
same,Pigweed plant response rating,[2]; [18],80
same,Pigweed plant response rating,[2]; [19],90
same,Pigweed plant response rating,[2]; [20],100
same,"Plant response rating, Pigweed",[2]; [21],100
same,Velvetleaf plant response rating,[3]; [18],50
same,Velvetleaf plant response rating,[3]; [19],90
same,Velvetleaf plant response rating,[3]; [20],70
same,"Plant response rating, Velvetleaf",[3]; [21],90
same,"Bromegrass, Downy plant response rating",[4]; [22],0
same,"Bromegrass, Downy plant response rating",[4]; [23],60
same,"Plant response rating (0 to 100), Bromegrass, Downy","[4]; Postemergence, 31 g ai/ha",0
same,"Plant response rating, Bromegrass, Downy","[4]; Postemergence, 62 g ai/ha",0
same,"Plant response rating, Bromegrass, Downy","[4]; Postemergence, 125 g ai/ha",0
same,"Plant response rating, Bromegrass, Downy","[4]; Postemergence, 250 g ai/ha",0
same,"Plant response rating (0 to 100), Bromegrass, Downy","[4]; Preemergence, 250 g ai/ha",100
same,"Bromegrass, Downy plant response rating",[4]; [24],98
same,"Foxtail, Green plant response rating",[5]; [22],75
same,"Foxtail, Green plant response rating",[5]; [23],85
same,"Plant response rating (0 to 100), Foxtail, Green","[5]; Postemergence, 31 g ai/ha",0
same,"Plant response rating, Foxtail, Green","[5]; Postemergence, 62 g ai/ha",0
same,"Plant response rating, Foxtail, Green","[5]; Postemergence, 125 g ai/ha",10
same,"Plant response rating, Foxtail, Green","[5]; Postemergence, 250 g ai/ha",55
same,"Plant response rating (0 to 100), Foxtail, Green","[5]; Preemergence, 250 g ai/ha",100
same,"Foxtail, Green plant response rating",[5]; [24],98
same,"Oat, Wild plant response rating",[6]; [22],30
same,"Oat, Wild plant response rating",[6]; [23],40
same,"Plant response rating (0 to 100), Oat, Wild","[6]; Postemergence, 31 g ai/ha",0
same,"Plant response rating, Oat, Wild","[6]; Postemergence, 62 g ai/ha",0
same,"Plant response rating, Oat, Wild","[6]; Postemergence, 125 g ai/ha",0
same,"Plant response rating, Oat, Wild","[6]; Postemergence, 250 g ai/ha",0
same,"Plant response rating (0 to 100), Oat, Wild","[6]; Preemergence, 250 g ai/ha",100
same,"Oat, Wild plant response rating",[6]; [24],80
same,Surinam Grass plant response rating,[7]; 62 g ai/ha,100
same,"Plant response rating (0 to 100), Surinam Grass","[7]; Postemergence, 31 g ai/ha",0
same,"Plant response rating (0 to 100), Surinam Grass","[7]; Postemergence, 62 g ai/ha",0
same,"Plant response rating, Surinam Grass","[7]; Postemergence, 125 g ai/ha",50
same,"Plant response rating, Surinam Grass","[7]; Postemergence, 250 g ai/ha",55
same,"Plant response rating (0 to 100), Surinam Grass","[7]; Preemergence, 250 g ai/ha",100
same,Surinam Grass plant response rating,[7]; 125 g ai/ha,100
same,Cocklebur plant response rating,[8]; [22],0
same,Cocklebur plant response rating,[8]; [23],0
same,"Plant response rating (0 to 100), Cocklebur","[8]; Postemergence, 31 g ai/ha",0
same,"Plant response rating, Cocklebur","[8]; Postemergence, 62 g ai/ha",0
same,"Plant response rating, Cocklebur","[8]; Postemergence, 125 g ai/ha",0
same,"Plant response rating, Cocklebur","[8]; Postemergence, 250 g ai/ha",10
same,"Plant response rating (0 to 100), Cocklebur","[8]; Preemergence, 250 g ai/ha",5
same,Cocklebur plant response rating,[8]; [24],0
same,"Crabgrass, Large plant response rating",[9]; [22],45
same,"Crabgrass, Large plant response rating",[9]; [23],98
same,"Plant response rating (0 to 100), Crabgrass, Large","[9]; Postemergence, 31 g ai/ha",0
same,"Plant response rating, Crabgrass, Large","[9]; Postemergence, 62 g ai/ha",0
same,"Plant response rating, Crabgrass, Large","[9]; Postemergence, 125 g ai/ha",50
same,"Plant response rating, Crabgrass, Large","[9]; Postemergence, 250 g ai/ha",70
same,"Plant response rating (0 to 100), Crabgrass, Large","[9]; Preemergence, 250 g ai/ha",100
same,"Crabgrass, Large plant response rating",[9]; [24],100
same,"Foxtail, Giant plant response rating",[10]; [22],60
same,"Foxtail, Giant plant response rating",[10]; [23],90
same,"Plant response rating (0 to 100), Foxtail, Giant","[10]; Postemergence, 31 g ai/ha",0
same,"Plant response rating, Foxtail, Giant","[10]; Postemergence, 62 g ai/ha",40
same,"Plant response rating, Foxtail, Giant","[10]; Postemergence, 125 g ai/ha",50
same,"Plant response rating, Foxtail, Giant","[10]; Postemergence, 250 g ai/ha",55
same,"Plant response rating (0 to 100), Foxtail, Giant","[10]; Preemergence, 250 g ai/ha",100
same,"Foxtail, Giant plant response rating",[10]; [24],98
same,Johnsongrass plant response rating,[11]; 62 g ai/ha,98
same,"Plant response rating (0 to 100), Johnsongrass","[11]; Postemergence, 31 g ai/ha",0
same,"Plant response rating, Johnsongrass","[11]; Postemergence, 62 g ai/ha",0
same,"Plant response rating, Johnsongrass","[11]; Postemergence, 125 g ai/ha",20
same,"Plant response rating, Johnsongrass","[11]; Postemergence, 250 g ai/ha",20
same,"Plant response rating (0 to 100), Johnsongrass","[11]; Preemergence, 250 g ai/ha",100
same,Johnsongrass plant response rating,[11]; 125 g ai/ha,100
same,Kochia plant response rating,[12]; [22],80
same,Kochia plant response rating,[12]; [23],100
same,"Plant response rating (0 to 100), Kochia","[12]; Postemergence, 31 g ai/ha",5
same,"Plant response rating, Kochia","[12]; Postemergence, 62 g ai/ha",5
same,"Plant response rating, Kochia","[12]; Postemergence, 125 g ai/ha",10
same,"Plant response rating, Kochia","[12]; Postemergence, 250 g ai/ha",10
same,"Plant response rating (0 to 100), Kochia","[12]; Preemergence, 250 g ai/ha",100
same,Kochia plant response rating,[12]; [24],100
same,Lambsquarters plant response rating,[13]; [22],98
same,Lambsquarters plant response rating,[13]; [23],100
same,"Plant response rating (0 to 100), Lambsquarters","[13]; Postemergence, 31 g ai/ha",10
same,"Plant response rating, Lambsquarters","[13]; Postemergence, 62 g ai/ha",15
same,"Plant response rating, Lambsquarters","[13]; Postemergence, 125 g ai/ha",20
same,"Plant response rating, Lambsquarters","[13]; Postemergence, 250 g ai/ha",20
same,"Plant response rating (0 to 100), Lambsquarters","[13]; Preemergence, 250 g ai/ha",100
same,Lambsquarters plant response rating,[13]; [24],100
same,Nightshade plant response rating,[14]; [22],85
same,Nightshade plant response rating,[14]; [23],98
same,"Plant response rating (0 to 100), Nightshade","[14]; Preemergence, 250 g ai/ha",100
same,Nightshade plant response rating,[14]; [24],98
same,Ragweed plant response rating,[15]; [22],100
same,Ragweed plant response rating,[15]; [23],100
same,"Plant response rating (0 to 100), Ragweed","[15]; Postemergence, 31 g ai/ha",5
same,"Plant response rating (0 to 100), Ragweed","[15]; Postemergence, 62 g ai/ha",5
same,"Plant response rating, Ragweed","[15]; Postemergence, 125 g ai/ha",50
same,"Plant response rating, Ragweed","[15]; Postemergence, 250 g ai/ha",50
same,"Plant response rating (0 to 100), Ragweed","[15]; Preemergence, 250 g ai/ha",100
same,Ragweed plant response rating,[15]; [24],100
same,"Plant response rating (0 to 100), Velvetleaf",[16]; 31 g ai/ha,10
same,"Plant response rating (0 to 100), Velvetleaf",[16]; 62 g ai/ha,10
same,"Plant response rating, Velvetleaf",[16]; 125 g ai/ha,60
same,"Plant response rating, Velvetleaf",[16]; 250 g ai/ha,65
same,"Plant response rating, Rice","[17]; 31 g ai/ha, scale 0 to 100 (0 no effect, 100 complete control)",0
same,"Plant response rating, Rice","[17]; 62 g ai/ha, scale 0 to 100, 0 no effect, 100 complete control, 13 to 15 days",0
same,"Plant response rating, Rice","[17]; 125 g ai/ha, scale 0 to 100, 0 no effect, 100 complete control, 13 to 15 days",60
same,"Plant response rating, Rice","[17]; 250 g ai/ha, scale 0 to 100 (0 no effect, 100 complete control)",70
